{"source": "patent US6827926B2", "about": "“Metallotetrapyrrolic photosensitizing agents for use in photodynamic therapy” (Miravant Pharmaceuticals, Inc., priority 2001, dated 2004)", "key": {"[1]": {"test_system": "normal skin of CD Hairless male rats", "type": "in vivo, rat", "method_in_brief": "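Liposomal egg yolk phospholipid photosensitizer given as single i.v. tail-vein bolus at 1, 1.5 and 2 μmol/kg; skin spots irradiated with 532 nm laser (150 mW/cm^2, 150J, 1 cm) at 1, 6, 24, 48, 96 hrs post injection. Value is time of last observed skin response spot.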"}, "[2]": {"test_system": "normal uninjured rat carotid arteries (medial and adventitial cell populations)", "assay": "In vivo rat carotid artery acellularity after PDT", "parameters": "species or system Sprague Dawley rats", "conditions": "for Max % rat Artery Accelularity: Table 3; for Max % Rat Artery Accelularity: Table 4, 575 nm (Pt 532 nm); for accelularity in rat artery at a four hour treatment point: 4 hrs post administration; for Max % Rat Artery Acceluarity: Table 5", "method_in_brief": "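Metallated photosensitizers light-activated in normal uninjured rat left common carotid via balloon catheter introduced through femoral arteriotomy under isoflurane; excitation 575 nm (Ga, Zn, Al, Sn) or 532 nm (Pt). Arteries harvested 3 days post-treatment, H&E-stained; medial and adventitial cell density assessed by light microscopy.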"}, "[3]": {"test_system": "V79 (Chinese Hamster Lung Fibroblasts) cells", "assay": "In vitro cytotoxicity assay (light EC50, Alamar blue)", "type": "cell-based", "method_in_brief": "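V79 cells in phenol-free 5% FBS/DMEM exposed 24 h to photosensitizer at final 0.01–5.0 μM, six replicates, then washed and light-treated, with a dark plate as control. Survival by Alamar blue after 24 h dark incubation, read at 570/600 nm.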"}, "[4]": {"conditions": "drug dose 1 μMol, 50 J/cm^2, 3 days post treatment"}, "[5]": {"conditions": "Table 3 porphyrins, 24 h drug incubation, 532 nm, 1.25 J/cm^2, read-out: In Vitro EC50 Light"}, "[6]": {"conditions": "Table 4 azaporphyrins, 575 nm (Pt azaporphyrins 532 nm), 1.25 J/cm^2, read-out: In Vitro EC(50)"}, "[7]": {"conditions": "Table 5 plant derived gallium porphyrins, light, read-out: In Vitro EC(50)"}}, "note": "pEC50: −log10 of the molar value. Where two headings read alike, the source gives them in different places."}
{"smiles": "CCC1=C(C)c2cc3[n-]c(cc4nc(cc5[n-]c(cc1n2)c(C)c5CC)C(C)=C4CCCN1CCCC1)c(CCCN1CCCC1)c3C.[Pt+2]", "note": "[Example 77, Platinum 8,13-diethyl-3,7,12,17-tetramethylporphyrin-2,18-di(3-(N-pyrrolidino)propyl)]", "values": [{"measurement": "Normal skin Response (1 μmol)", "setting": "[1]; Table 3, time of last skin spot observed post injection, 1 μmol, 532 nm laser", "value": 96, "unit": "h"}, {"measurement": "Max % rat Artery Accelularity", "setting": "[2]; [4]", "value": 25, "unit": "%"}, {"measurement": "pEC50", "setting": "[3]; [5]", "value": 7.00}]}
{"smiles": "CCC1=C(C)C2=[N+]3C1=Cc1c(C)c(CC)c4[n]1[Ga-2]31([OH])[n]3c(c(C)c(CCCNCCCO)c3=CC3=[N+]1C(=C4)C(C)=C3CCCNCCCO)=C2", "note": "[Example 78, Gallium Hydroxy 8,13-diethyl-3,7,12,17 tetramethylporphyrin-2,18-di((N-3′-hydoxypropyl)-3-aminopronpyl)]", "values": [{"measurement": "Normal skin Response (1 μmol)", "setting": "[1]; rat, in vivo", "value": 6, "unit": "h"}, {"measurement": "Max % rat Artery Accelularity", "setting": "[2]; drug dose 2 μMol", "value": 10, "unit": "%"}, {"measurement": "pEC50", "setting": "[3]; [5]", "value": 6.00}]}
{"smiles": "CCC1=C(CC)C2=[N+]3C1=Nc1c(CC)c(CC)c4[n]1[Sn-2]31([Cl])([Cl])[n]3c(c(C)c(CCC(=O)OC)c3=CC3=[N+]1C(=C4)C(C)=C3CCC(=O)OC)=C2", "note": "[Example 82, Tin(IV)dichloride 7,8,12,13-tetraethyl-12,17-dimethyl-10-azaporphyrin-2,18-di(propionic acid methyl ester)]", "values": [{"measurement": "Normal skin Response (1 μmol)", "setting": "[1]; rat, in vivo", "value": 96, "unit": "h"}, {"measurement": "Max % Rat Artery Accelularity", "setting": "[2]; drug dose 1 μMol", "value": 30, "unit": "%"}, {"measurement": "pEC50", "setting": "[3]; [6]", "value": 6.40}]}
{"smiles": "CCC1=C(CC)C2=[N+]3C1=Nc1c(CC)c(CC)c4[n]1[In-2]31([Cl])[n]3c(c(C)c(CCC(=O)OC)c3=CC3=[N+]1C(=C4)C(C)=C3CCC(=O)OC)=C2", "note": "[Example 83, Indium Chloride 7,8,12,13-tetraethyl-12,17-dimethyl-10-azaporphyrin-2,18-di(propionic acid methyl ester)]", "values": [{"measurement": "Normal skin Response (1 μmol)", "setting": "[1]; rat, in vivo", "value": 48, "unit": "h"}, {"measurement": "Max % Rat Artery Accelularity", "setting": "[2]; drug dose 1 μMol", "value": 50, "unit": "%"}, {"measurement": "pEC50", "setting": "[3]; [6]", "value": 7.52}]}
{"smiles": "CCC1=C(CC)C2=[N+]3C1=Nc1c(CC)c(CC)c4[n]1[Ga-2]31([Cl])[n]3c(c(C)c(CCC(=O)O)c3=CC3=[N+]1C(=C4)C(C)=C3CCC(=O)O)=C2", "note": "[Example 87, Gallium Chloride 7,8,12,13-tetraethyl-12,17-dimethyl-10-azaporphyrin-2,18-di(propionic acid)]", "values": [{"measurement": "Normal skin Response (1 μmol)", "setting": "[1]; rat, in vivo", "value": 24, "unit": "h"}, {"measurement": "accelularity in rat artery at a four hour treatment point", "setting": "[2]", "value": 30, "unit": "%"}, {"measurement": "Max % Rat Artery Accelularity", "setting": "[2]; drug dose 1 μMol", "value": 30, "unit": "%"}, {"measurement": "pEC50", "setting": "[3]; [6]", "value": 6.51}]}
{"smiles": "CCOC(=O)CCC1=C(C)C2=Cc3c(CC)c(CC)c4[n]3[Ga-2]35([Cl])[n]6c(c(C)c(CCC(=O)OCC)c6=CC1=[N+]23)=CC1=[N+]5C(=N4)C(CC)=C1CC", "note": "[Example 89, Gallium Chloride 7,8,12,13-tetraethyl-12,17-dimethyl-10-azaporphyrin-2,18-di(propionic acid ethyl ester)]", "values": [{"measurement": "Normal skin Response (1 μmol)", "setting": "[1]; rat, in vivo", "value": 24, "unit": "h"}, {"measurement": "Max % Rat Artery Accelularity", "setting": "[2]; drug dose 1 μMol", "value": 60, "unit": "%"}, {"measurement": "pEC50", "setting": "[3]; [6]", "value": 6.40}]}
{"smiles": "CCC1=C(CC)C2=Nc3c(CC)c(CC)c4[n]3[Sn]([Cl])([Cl])[n]3c(c(C)c(CCC(=O)NC)c3=CC3=NC(=C4)C(C)=C3CCC(=O)NC)=CC1=N2", "note": "[Example 90, Tin (IV) Dichloride 7,8,12,13-tetraethyl-12,17-dimethyl-10-azaporphyrin-2,18-di(propionic acid methyl amide)]", "values": [{"measurement": "Normal skin Response (1 μmol)", "setting": "[1]; rat, in vivo", "value": 96, "unit": "h"}, {"measurement": "Max % Rat Artery Accelularity", "setting": "[2]; drug dose 1 μMol", "value": 30, "unit": "%"}, {"measurement": "pEC50", "setting": "[3]; [6]", "value": 6.30}]}
{"smiles": "CCC1=C(CC)C2=Nc3c(CC)c(CC)c4[n]3[In]([Cl])[n]3c(c(C)c(CCC(=O)NC)c3=CC3=NC(=C4)C(C)=C3CCC(=O)NC)=CC1=N2", "note": "[Example 91, Indium Chloride 7,8,12,13-tetraethyl-12,17-dimethyl-10-azaporphyrin-2,18-di(propionic acid methyl amide)]", "values": [{"measurement": "Normal skin Response (1 μmol)", "setting": "[1]; rat, in vivo", "value": 48, "unit": "h"}, {"measurement": "Max % Rat Artery Accelularity", "setting": "[2]; drug dose 1 μMol", "value": 50, "unit": "%"}, {"measurement": "pEC50", "setting": "[3]; [6]", "value": 7.15}]}
{"smiles": "CCC1=C(CC)C2=Nc3c(CC)c(CC)c4[n]3[Ga]([Cl])[n]3c(c(C)c(CCCC(=O)OC)c3=CC3=NC(=C4)C(C)=C3CCCC(=O)OC)=CC1=N2", "note": "[Example 108, Gallium Chloride 7,8,12,13-tetraethyl-12,17-dimethyl-10-azaporphyrin-2,18-di(butanoic acid methyl ester)]", "values": [{"measurement": "Normal skin Response (1 μmol)", "setting": "[1]; Table 4, time of last skin spot observed post injection, 1 μmol", "value": 24, "unit": "h"}, {"measurement": "Max % Rat Artery Accelularity", "setting": "[2]; drug dose 1 μMol", "value": 55, "unit": "%"}, {"measurement": "pEC50", "setting": "[3]; [6]", "value": 6.40}]}
{"smiles": "CCC1=C(C)c2cc3[n-]c(cc4nc(cc5[n-]c(cc1n2)c(C)c5CC)C(C)=C4CCC(=O)[O-])c(CCC(=O)[O-])c3C.[Ga+3].[Na+].[Na+].[OH-]", "note": "[Example 109, Gallium Hydroxy Mesoporphyrin Disodium Salt]", "values": [{"measurement": "Normal skin Response (1 μmol) in hrs", "setting": "[1]; rat, in vivo", "value": "none"}, {"measurement": "normal skin response at the drug doses used", "setting": "[1]; rat, in vivo", "value": "no observed normal skin response"}, {"measurement": "acellularity following PDT of rat arteries at longer treatment times post injection", "setting": "[2]; 16, 24 hrs post injection", "value": "significant acellularity"}, {"measurement": "accelularity in rat artery at a four hour treatment point", "setting": "[2]", "value": 10, "unit": "%"}, {"measurement": "Max % rat Artery Accelularity", "setting": "[2]; drug dose 1 μMol, 4 hrs", "value": "10/4 hrs. %"}, {"measurement": "Max % rat Artery Accelularity", "setting": "[2]; drug dose 1 μMol, 24 hrs", "value": "100/24 hrs %"}, {"measurement": "pEC50", "setting": "[3]; [5]", "value": 5.62}]}
{"smiles": "CCC1=C(C)c2cc3[n-]c(cc4nc(cc5[n-]c(cc1n2)c(C)c5CC)C(C)=C4CCCCC(=O)[O-])c(CCCCC(=O)[O-])c3C.[Ga+3].[Na+].[Na+].[OH-]", "note": "[Example 114, Gallium Hydroxy 8,13-diethyl-3,7,12,17-tetramethylporphyrin-2,18-di(pentanoic acid sodium salt)]", "values": [{"measurement": "Normal skin Response (1 μmol)", "setting": "[1]; rat, in vivo", "value": 24, "unit": "h"}, {"measurement": "Max % rat Artery Accelularity", "setting": "[2]; [4]", "value": 20, "unit": "%"}, {"measurement": "pEC50", "setting": "[3]; [5]", "value": 5.64}]}
{"smiles": "CCCOC(=O)CCC1=C(C)c2cc3[n-]c(cc4nc(cc5[n-]c(cc1n2)c(CCC(=O)OCCC)c5C)C=C4C)cc3C.[Cl-].[Ga+3]", "note": "[Example 122, Gallium Chloride Deuteroporphyrin Di-propylester]", "values": [{"measurement": "Normal skin Response (1 μmol)", "setting": "[1]; rat, in vivo", "value": 6, "unit": "h"}, {"measurement": "Max % rat Artery Accelularity", "setting": "[2]; [4]", "value": 95, "unit": "%"}, {"measurement": "pEC50", "setting": "[3]; [5]", "value": 6.46}]}
{"smiles": "C=CC1=C(C)C2=Cc3c(C=C)c(C)c4[n]3[Al-2]35([Cl])[n]6c(c(C)c(CCC(=O)OC)c6=CC6=[N+]3C(=C4)C(C)=C6CCC(=O)OC)=CC1=[N+]25", "note": "[M=Al R1=V R3=Me R4=V R2=CO2Me]", "values": [{"measurement": "Normal skin Response (1 μmol)", "setting": "[1]; rat, in vivo", "value": 6, "unit": "h"}, {"measurement": "Max % rat Artery Accelularity", "setting": "[2]; [4]", "value": 0, "unit": "%"}, {"measurement": "pEC50", "setting": "[3]; [5]", "value": 5.46}]}
{"smiles": "C=CC1=C(C)C2=Nc3c(C=C)c(C)c4[n]3[Ga-2]35([Cl])[n]6c(c(C)c(CCC(=O)NC)c6=CC6=[N+]3C(=C4)C(C)=C6CCC(=O)NC)=CC1=[N+]25", "note": "[M=Ga R1,R3=Me R2,R4=V R=CONHMe]", "values": [{"measurement": "Normal skin Response (1 μmol)", "setting": "[1]; rat, in vivo", "value": 24, "unit": "h"}, {"measurement": "Max % Rat Artery Accelularity", "setting": "[2]; drug dose 1 μMol", "value": 50, "unit": "%"}, {"measurement": "pEC50", "setting": "[3]; [6]", "value": 6.30}]}
{"smiles": "CCC1=C(C)C2=Cc3c(CC)c(C)c4[n]3[Ga-2]35([Cl])[n]6c(c(C)c(CO)c6=CC6=[N+]3C(=C4)C(C)=C6CCCO)=CC1=[N+]25", "note": "[M=Ga R1=CH2OH R2=Et R3=Et R4=CH2OH R5=H]", "values": [{"measurement": "Normal skin Response (1 μmol)", "setting": "[1]; rat, in vivo", "value": 48, "unit": "h"}, {"measurement": "Max % Rat Artery Acceluarity", "setting": "[2]; drug dose 1 μMol", "value": 70, "unit": "%"}, {"measurement": "pEC50", "setting": "[3]; [7]", "value": 6.39}]}
{"smiles": "CCC1=C(C)C2=Cc3c(CC)c(C)c4[n]3[Ga-2]35([Cl])[n]6c(c(C)c(C(=O)NC)c6=CC6=[N+]3C(=C4)C(C)=C6CCC(=O)O)=CC1=[N+]25", "note": "[M=Ga R1=CO2H R2=Et R3=Et R4=CONHMe R5=H]", "values": [{"measurement": "Normal skin Response (1 μmol)", "setting": "[1]; rat, in vivo", "value": 6, "unit": "h"}, {"measurement": "Max % Rat Artery Acceluarity", "setting": "[2]; drug dose 1 μMol", "value": 50, "unit": "%"}, {"measurement": "pEC50", "setting": "[3]; [7]", "value": 6.30}]}
